Measured values from patent US9284283B2, “Macrocyclic compounds for modulating IL-17” (ENSEMBLE THERAPEUTICS CORPORATION, priority 2012, dated 2016).

Molecular target: T1, biotinylated human IL-17 (binding to IL17R/Fc) (Homo sapiens, UniProt Q16552)
T1 construct: purchased R&D Systems 317-ILB (IL-17, biotinylated); 177-IR (IL17R/Fc)
T1 sequence (Q16552 20-155 limits assumed): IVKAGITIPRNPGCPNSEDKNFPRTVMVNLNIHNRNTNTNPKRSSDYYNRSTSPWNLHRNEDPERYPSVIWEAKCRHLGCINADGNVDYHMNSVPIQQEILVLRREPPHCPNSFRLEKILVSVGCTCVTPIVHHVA
Experiment: IL-17 competition ELISA II (captured IL17R/Fc, biotinylated IL-17)
How it was run: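 Competition read-out: absorbance at 450 nm after streptavidin-HRP/TMB detection, fitted to a 4-parameter logistic model bounded by no-competitor and blank wells to give IC50. Compound was serially diluted 5-fold from 1 μM alongside 20 nM (stock) biotinylated IL-17 on IL17R/Fc (10 nM) captured via goat anti-human IgG, 30 min at room temperature.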

Row | IC50 | Structure (SMILES)
1 | < 0.1 µM | C[C@H]1NC(=O)[C@@H](Cc2ccc(NC(=O)[C@H](Cc3ccccc3Cl)NC(=O)c3cnc4ccccc4c3)cc2)NC(=O)CC2(CCCC2)CC(=O)NCCCCCNC1=O [Compound 428]
2 | 0.1 to 1 µM | O=C1CC2(CCCC2)CC(=O)N[C@H](Cc2ccc(NC(=O)[C@H](Cc3ccccc3C(F)(F)F)NC(=O)C3(c4ccc(F)cc4)CC3)cc2)C(=O)NCCOCCOCCN1 [Compound 508]
3 | 0.1 to 1 µM | CN1CCCC/C=C/CNC(=O)[C@@H](Cc2ccc(NC(=O)[C@@H](NC(=O)c3cccnc3)C3CCCCC3)cc2)NC(=O)CC2(CCCC2)CC1=O [Compound 448]
4 | 0.1 to 1 µM | O=C1CC2(CCCC2)CC(=O)N[C@H](Cc2ccc(NC(=O)[C@@H](NC(=O)Cc3ccc(F)cc3)C3CCCCC3)cc2)C(=O)NCCCCN1 [Compound 410]
5 | < 0.1 µM | O=C1CC2(CCCC2)CC(=O)N[C@H](Cc2ccc(NC(=O)[C@H](Cc3ccccc3Cl)NC(=O)Cc3ccccc3)cc2)C(=O)NCCCCCN1 [Compound 392]
6 | < 0.1 µM | CN1CCCCCNC(=O)[C@@H](C(C)(C)C)NC(=O)[C@@H](Cc2ccc(NC(=O)[C@H](Cc3ccccc3Cl)NC(=O)Cc3cccc(O)c3)cc2)NC(=O)CC2(CCCC2)CC1=O [Compound 462]
7 | < 0.1 µM | C[C@H]1NC(=O)[C@@H](Cc2ccc(NC(=O)[C@H](Cc3ccccc3Cl)NC(=O)Cc3ccc(F)cc3)cc2)NC(=O)CC2(CCCC2)NC(=O)CCCCCNC1=O [Compound 617]
8 | < 0.1 µM | O=C1CNC(=O)[C@@H](Cc2ccc(NC(=O)[C@@H](NC(=O)Cc3c(F)cc(F)cc3F)C3CCCCC3)cc2)NC(=O)CC2(CCCC2)CC(=O)NCCCCCN1 [Compound 404]
9 | 0.1 to 1 µM | O=C1CC2(CCCC2)CC(=O)N[C@H](Cc2ccc(NC(=O)[C@H](Cc3ccccc3Cl)NC(=O)c3cccnc3)cc2)C(=O)NCCCCN1 [Compound 420]
10 | < 0.1 µM | CN(C)CCOc1ccc(CC(=O)N[C@@H](Cc2ccccc2Cl)C(=O)Nc2ccc(C[C@H]3NC(=O)CC4(CCCC4)CC(=O)NCCCCCNC(=O)[C@@H](Cc4ccccc4)NC3=O)cc2)cc1 [Compound 431]
11 | 0.1 to 1 µM | O=C1CC2(CCCC2)NC(=O)CCCCNC(=O)[C@@H](Cc2ccc(NC(=O)[C@H](Cc3ccccc3Cl)NC(=O)C(F)(F)c3ccccc3)cc2)N1 [Compound 652]
12 | < 0.1 µM | C[C@H]1NC(=O)[C@@H](Cc2ccc(NC(=O)[C@H](Cc3ccccc3Cl)NC(=O)Cc3ccc(F)cc3)cc2)NC(=O)CC2(CCCCC2)NC(=O)CCCCCCNC1=O [Compound 621]
13 | 0.1 to 1 µM | COC(=O)N[C@H](C(=O)Nc1ccc(C[C@H]2NC(=O)CC3(CCCC3)CC(=O)N(C)CCCCCN(C)C(=O)[C@@H](C)NC2=O)cc1)C1CCCCC1 [Compound 625]
14 | < 0.1 µM | O=C1CC2(CCCC2)CC(=O)N[C@H](Cc2ccc(NC(=O)[C@H](Cc3ccccc3Cl)NC(=O)c3ccccc3O)cc2)C(=O)NCCOCCOCCN1 [Compound 537]
15 | < 0.1 µM | O=C1CNC(=O)[C@@H](Cc2ccc(NC(=O)[C@@H](NC(=O)c3cncc4ccccc34)C3CCCCC3)cc2)NC(=O)CC2(CCCC2)CC(=O)NCCCCCN1 [Compound 450]
16 | 0.1 to 1 µM | O=C1CNC(=O)[C@@H](Cc2ccc(NC(=O)[C@@H](NC(=O)c3cnc4ccccc4c3)C3CCCCC3)cc2)NC(=O)CC2(CCCC2)CC(=O)NCCCCCN1 [Compound 449]
17 | < 0.1 µM | C[C@H]1NC(=O)[C@@H](Cc2ccc(NC(=O)[C@H](Cc3ccccc3Cl)NC(=O)OCc3ccccc3)cc2)NC(=O)CC2(CCCC2)CC(=O)NCCCCCNC1=O [Compound 576]
18 | < 0.1 µM | O=C1CC2(CCCC2)CC(=O)N[C@H](Cc2ccc(NC(=O)[C@H](Cc3ccccc3Cl)NC(=O)C(=O)c3ccccc3)cc2)C(=O)NCCOCCOCCN1 [Compound 548]
19 | < 0.1 µM | C[C@H]1NC(=O)[C@@H](Cc2ccc(NC(=O)[C@H](Cc3ccccc3Cl)NC(=O)Cc3ccc(F)cc3)cc2)N(C)C(=O)CC2(CCCC2)CC(=O)NCCCCCNC1=O [Compound 486]
20 | < 0.1 µM | NC(=O)c1ccccc1C[C@H]1NC(=O)[C@@H](Cc2ccc(NC(=O)[C@H](Cc3ccccc3Cl)NC(=O)Cc3ccc(CO)cc3)cc2)NC(=O)CC2(CCCC2)CC(=O)N[C@H](C(=O)O)CCCCNC1=O [Compound 659]
21 | 0.1 to 1 µM | O=C1CNC(=O)[C@@H](Cc2ccc(NC(=O)[C@@H](Cc3ccccc3Cl)NC(=O)Cc3ccccc3)cc2)NC(=O)CC2(CCCC2)CC(=O)NCCCCCN1 [Compound 526]
22 | < 0.1 µM | CN(C)c1ccc(CC(=O)N[C@H](C(=O)Nc2ccc(C[C@H]3NC(=O)CC4(CCCC4)CC(=O)NCCCCCCCCNC3=O)cc2)C2CCCCC2)cc1 [Compound 599]
23 | < 0.1 µM | O=C1CC2(CCCC2)CC(=O)N[C@H](Cc2ccc(NC(=O)[C@H](Cc3ccccc3Cl)NC(=O)Cc3ccc(CO)cc3)cc2)C(=O)NCCCN1 [Compound 401]

Row | IC50 | Structure (SMILES)
24 | < 0.1 µM | C[C@H]1NC(=O)[C@@H](Cc2ccc(NC(=O)[C@H](Cc3ccccc3Cl)NC(=O)C(=O)c3ccccc3)cc2)NC(=O)CC2(CCCC2)CC(=O)N(C)CCOCCN(C)C1=O [Compound 594]
25 | < 0.1 µM | O=C1CNC(=O)[C@@H](Cc2ccc(NC(=O)[C@H](Cc3ccccc3Cl)NC(=O)C(F)F)cc2)NC(=O)CC2(CCCC2)CC(=O)OCCCCCN1 [Compound 675]
26 | 0.1 to 1 µM | COC(=O)N[C@H](C(=O)Nc1ccc(C[C@H]2NC(=O)CC3(CCCC3)CC(=O)NCCOCCOCCNC2=O)cc1)C1CCCCC1 [Compound 632]
27 | < 0.1 µM | C[C@H]1NC(=O)[C@@H](Cc2ccc(NC(=O)[C@H](Cc3ccccc3Cl)NC(=O)Cc3ccc(F)cc3)cc2)N(C)C(=O)CC2(CCCC2)CC(=O)NCCCCCN(C)C1=O [Compound 518]
28 | < 0.1 µM | CCOC(=O)N[C@@H](Cc1ccccc1Cl)C(=O)Nc1ccc(C[C@H]2NC(=O)CC3(CCCC3)CC(=O)NCCOCCOCCNC2=O)cc1 [Compound 579]
29 | 0.1 to 1 µM | Cc1ccc(C[C@H](NC(=O)C2(c3ccc(F)cc3)CC2)C(=O)Nc2ccc(C[C@H]3NC(=O)CC4(CCCC4)CC(=O)N(C)CCCCCNC(=O)[C@@H](C)NC3=O)cc2)c(C)c1 [Compound 509]
30 | < 0.1 µM | C[C@H]1NC(=O)[C@@H](Cc2ccc(NC(=O)[C@H](Cc3ccccc3Cl)NC(=O)Cc3ccc(F)cc3)cc2)NC(=O)CC2(CCCC2)CC(=O)NCCN2CCN(CC2)C1=O [Compound 534]
31 | < 0.1 µM | C[C@H]1NC(=O)[C@@H](Cc2ccc(NC(=O)[C@H](Cc3ccccc3Cl)NC(=O)C(F)(F)c3ccccc3)cc2)NC(=O)CC2(CCCC2)CC(=O)N2CCN(CCNC1=O)CC2 [Compound 542]
32 | < 0.1 µM | O=C1CC2(CCCC2)CC(=O)N[C@H](Cc2ccc(NC(=O)[C@H](Cc3ccccc3Cl)NC(=O)[C@@H](O)c3ccccc3)cc2)C(=O)NCCOCCOCCN1 [Compound 544]
33 | < 0.1 µM | O=C1CNC(=O)[C@@H](Cc2ccc(NC(=O)[C@@H](NC(=O)c3ccc(Cl)cc3)C3CCCCC3)cc2)NC(=O)CC2(CCCC2)CC(=O)NCCCCCN1 [Compound 396]
34 | < 0.1 µM | C[C@H]1NC(=O)[C@@H](Cc2ccc(NC(=O)[C@@H](Nc3nc4ccccc4o3)C3CCCCC3)cc2)NC(=O)CC2(CCCC2)CC(=O)N(C)CCCCCN(C)C1=O [Compound 665]
35 | < 0.1 µM | O=C1CNC(=O)[C@@H](Cc2ccc(NC(=O)[C@@H](NC(=O)C(F)F)C3CCCCC3)cc2)NC(=O)CC2(CCCC2)CC(=O)OCCCCCN1 [Compound 672]
36 | 0.1 to 1 µM | O=C1CC2(CCCC2)CC(=O)N[C@H](Cc2ccc(NC(=O)[C@H](Cc3ccccc3Cl)NC(=O)c3ccc(F)cc3O)cc2)C(=O)NCCOCCOCCN1 [Compound 538]
37 | < 0.1 µM | CN(C)CC[C@H]1NC(=O)[C@@H](Cc2ccc(NC(=O)[C@H](Cc3ccccc3Cl)NC(=O)C(F)(F)c3ccccc3)cc2)NC(=O)CC2(CCCC2)CC(=O)N(C)CCOCCN(C)C1=O [Compound 642]
38 | 0.1 to 1 µM | O=C1CC2(CCCC2)CC(=O)N[C@H](Cc2ccc(NC(=O)[C@H](Cc3ccccc3Cl)NC(=O)c3ccccc3)cc2)C(=O)NCCCCCCCCN1 [Compound 366]
39 | < 0.1 µM | O=C1CC2(CCCC2)CC(=O)N[C@H](Cc2ccc(NC(=O)[C@H](Cc3ccccc3Cl)NC(=O)C(F)(F)c3ccc(F)cc3)cc2)C(=O)NCCOCCOCCN1 [Compound 559]
40 | < 0.1 µM | C[C@H]1NC(=O)[C@@H](Cc2ccc(NC(=O)[C@H](Cc3ccccc3Cl)NC(=O)Cc3ccc(CO)cc3)cc2)NC(=O)CC2(CCCC2)CC(=O)NCc2cccc(c2)CNC1=O [Compound 520]
41 | < 0.1 µM | CN1CCOCCOCCNC(=O)[C@@H](Cc2ccc(NC(=O)[C@H](CC3CCC3)NC(=O)C(F)(F)c3ccccc3)cc2)NC(=O)CC2(CCCC2)CC1=O [Compound 615]
42 | < 0.1 µM | O=C1CC2(CCCC2)CC(=O)N[C@H](Cc2ccc(NC(=O)[C@H](Cc3ccccc3Cl)NC(=O)Cc3ccc(F)cc3)cc2)C(=O)NCCCC[C@@H](C(=O)O)N1 [Compound 460]
43 | 1 to 10 µM | CN1C(=O)CC2(CCCC2)CC(=O)NCCCCCC#CCNC(=O)[C@H]1Cc1ccc(NC(=O)[C@H](Cc2ccccc2Cl)NC(=O)C2(c3ccc(F)cc3)CC2)cc1 [Compound 491]
44 | < 0.1 µM | C[C@H]1NC(=O)[C@@H](Cc2ccc(NC(=O)[C@@H](NC(=O)Cc3ccc(N(C)C)cc3)C3Cc4ccccc4C3)cc2)NC(=O)CC2(CCCC2)CC(=O)N(C)CCCCCN(C)C1=O [Compound 644]
45 | < 0.1 µM | C[C@H]1NC(=O)[C@@H](Cc2ccc(NC(=O)[C@H](Cc3ccccc3Cl)NC(=O)C(F)(F)c3ccccc3)cc2)NC(=O)C[C@@H](Cc2ccccc2)NC(=O)CCNC(=O)CCNC1=O [Compound 634]
46 | 0.1 to 1 µM | O=C1CC2(CCCC2)CC(=O)N[C@H](Cc2ccc(NC(=O)[C@H](Cc3ccccc3Cl)NC(=O)C(F)(F)c3ccccc3)cc2)C(=O)NCCN2CCN(CCN1)CC2 [Compound 531]

Row | Structure (SMILES) | IC50
47 | C[C@H]1NC(=O)[C@@H](Cc2ccc(NC(=O)[C@H](Cc3ccccc3Cl)NC(=O)Oc3ccc(F)cc3)cc2)NC(=O)CC2(CCCC2)CC(=O)NCCCCCNC1=O [Compound 575] | < 0.1 µM
